Data taken from US9248131B2, “Aquaporin modulators and methods of using them for the treatment of edema and fluid imbalance” (THE ARIZONA BOARD OF REGENTS ON BEHALF OF THE UNIVERSITY OF …, priority 2006, dated 2016).
Values belong to the molecule of their own block, whether it stands above or below them.

Key:
AQP4 = molecular target: T1, AQP4 (Homo sapiens, UniProt P55087); experiment: Oocyte swelling assay: water permeability (Pf) of AQP4-expressing oocytes by videomicroscopy, block or % stimulation; assay type: cell-based; conditions: for AQP-4 effect: comparison with bumetanide (in words): relative to bumetanide
T1 construct: expressed in transfected cells; host or cells: Xenopus oocytes
T1 sequence (P55087 whole entry, species assumed): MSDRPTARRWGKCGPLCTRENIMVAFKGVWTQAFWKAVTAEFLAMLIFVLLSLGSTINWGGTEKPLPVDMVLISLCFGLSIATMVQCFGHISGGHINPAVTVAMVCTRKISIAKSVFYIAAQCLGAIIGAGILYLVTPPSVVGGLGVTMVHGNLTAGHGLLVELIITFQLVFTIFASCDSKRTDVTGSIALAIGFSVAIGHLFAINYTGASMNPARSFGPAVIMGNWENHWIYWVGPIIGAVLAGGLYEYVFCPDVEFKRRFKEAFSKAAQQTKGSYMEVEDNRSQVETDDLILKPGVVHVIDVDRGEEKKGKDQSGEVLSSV
Description: (§1) A method for screening compounds for their ability to modulate aquaporin activity based on a water permeability assay in Xenopus oocytes expressing aquaporins which is used to identify, assess, and characterize compounds that either block or stimulate the aquaporin channels including AQP1, AQP4 and AQP9 channels.
(§2) Selection rationale and methodology. The ability of compounds, analogs and/or agents to block an aquaporin channel was quantified by videomicroscopic analyses of cross-sectional area of AQP-expressing oocytes as a function of time in a defined osmotic gradient, allowing the calculation of the water permeability factor (Pf), statistical evaluation of significant differences in the rate of water entry, and definition of dose response curves with IC50 values (concentration required for half-maximal block).
(§3) This compound evaluation method has been utilized with AQP1,-4,-5, and -9 channels. Observations of channel stimulation were made using the same assay method, however, the results were reported as % stimulation over control at a given concentration. […] TEA is known as a blocker of K^+ channel subtypes and nicotinic acetylcholine receptors. TEA sensitivity of AQP1 was removed by site-directed mutagenesis of tyrosine 186 to phenylalanine (Y186F) in the outer vestibule of the water pore, and confirmed that the inhibitory action of TEA is not due to nonspecific effects on endogenous channels (Brooks et al., 2000).

[1] = tested on: Na—K—Cl cotransporter (NKCC1); conditions: perfused kidney ascending loops of Henle; read-out: IC50 against Na—K—Cl cotransporter; cited from earlier work
AQP1 = molecular target: T2, AQP1 (Homo sapiens, UniProt P29972); experiment: Oocyte swelling assay: water permeability (Pf) of AQP1-expressing oocytes, block or % stimulation; assay type: cell-based; parameters: expressed in transfected cells; host or cells: Xenopus oocytes
T2 sequence (P29972 1-269): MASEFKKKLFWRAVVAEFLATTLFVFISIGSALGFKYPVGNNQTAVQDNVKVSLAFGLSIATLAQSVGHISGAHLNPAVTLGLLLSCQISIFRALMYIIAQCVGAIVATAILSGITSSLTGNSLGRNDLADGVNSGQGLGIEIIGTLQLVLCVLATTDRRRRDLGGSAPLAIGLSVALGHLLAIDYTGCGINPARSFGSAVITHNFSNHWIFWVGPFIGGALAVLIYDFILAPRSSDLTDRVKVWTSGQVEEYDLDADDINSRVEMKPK
Description: as §1, §2, §3

[2] = ↓ block, ↑ activation, ═ no effect, symbols not defined in the table
[3] = ↓ block, ↑ stimulation, ═ no effect, symbols not defined in the table

Compound: NS(=O)(=O)c1cc2c(=O)ncn(Cc3ccco3)c2cc1Cl
AQP-4 effect (in words) (AQP4; at 100 μM): p > 0.05 No significant Antagonist Effect at 100 μM

Compound: CCCCNc1cc(C(=O)Nc2ccncc2)cc(S(N)(=O)=O)c1Oc1ccccc1 [drawing 107]
AQP-4 effect: % block (AQP4; at 10 μM): 80%
toxicity observed in AQP-4 test (AQP4; at 10 μM): some toxicity observed

Compound: Cc1cccc(Nc2ccncc2S(=O)(=O)NC(=O)NC(C)C)c1 [torsemide, reference compound]
IC50 [1]: 300 nM
block of swelling in AQP4-expressing oocytes (AQP4; concentrations up to 1 mM): no blocking effect

Compound: CCCCNc1cc(C(=O)NCc2cccnc2)cc(S(N)(=O)=O)c1Oc1ccccc1
AQP-4 effect: % block (AQP4; at 10 μM): 50% block at 10 μM

Compound: CCCCNc1cc(C(=O)NCCN2CCOCC2)cc(S(N)(=O)=O)c1Oc1ccccc1
AQP-4 effect (in words) (AQP4; at 10 μM): Some agonist trend at 10 μM

Compound: CCCCNc1cc(C(=O)NCCN2CCN(C)CC2)cc(S(N)(=O)=O)c1Oc1ccccc1 [AQP-0007]
AQP-4 effect: % activation (AQP4; 10 μM given extracellularly): 110%
AQP-4 effect (arrow symbol) (AQP4; [2]): ↑↑

Compound: CCCCNc1c(Oc2ccccc2)cc(S(=O)(=O)NC)cc1C(=O)OC
AQP-4 effect: % block (AQP4; at 10 μM extracellularly): −40%
AQP-4 effect: comparison with bumetanide (in words) (AQP4): Improved potency over bumetanide

Compound: CCCCNc1cc(C(=O)NCc2ccccn2)cc(S(N)(=O)=O)c1Oc1ccccc1
AQP-4 effect (in words) (AQP4; at 10 μM): No Significant effect at 10 μM

Compound: CNS(=O)(=O)c1cc(C(=O)OC)c(NCc2ccco2)cc1Cl [AQP-0023, Furosemide methyl ester monomethyl sulfonamide]
AQP-4 effect: % agonist effect / agonist trend (AQP4; 100 μM given extracellularly): −20%
AQP-4 effect (arrow symbol) (AQP4; [2]): ↑
AQP-1 effect (arrow symbol) (AQP1; [3]): ↓↓

Compound: CCCCNc1cc(C(=O)NCCN2CCS(=O)(=O)CC2)cc(S(N)(=O)=O)c1Oc1ccccc1 [AQP-0009]
AQP-4 effect: % activation (AQP4; 10 μM given extracellularly): 60%
AQP-4 effect (arrow symbol) (AQP4; [2]): ↑

Compound: COC(=O)c1cc(S(N)(=O)=O)c(Cl)cc1NCc1ccco1 [AQP-0022, Furosemide methyl ester]
AQP-4 effect (in words) (AQP4; 100 μM extracellularly): No significant effect
AQP-4 effect (arrow symbol) (AQP4; [2]): ═
AQP-1 effect (arrow symbol) (AQP1; [3]): ↓↓

Compound: CCCCNc1cc(C(=O)N2CCOCC2)cc(S(N)(=O)=O)c1Oc1ccccc1 [drawing 100]
AQP-4 effect: % activation (AQP4; at 10 μM): 70% Activation at 10 μM

Compound: CCCCNc1cc(C(=O)Nc2ccccn2)cc(S(N)(=O)=O)c1Oc1ccccc1
AQP-4 effect (in words) (AQP4; at 10 μM): No Significant effect at 10 μM

Compound: C=CCNS(=O)(=O)c1cc(C(=O)OC)c(NCc2ccco2)cc1Cl [AQP-0027]
AQP-4 effect: % block / antagonist trend (AQP4; 100 μM, route not stated): −25%
AQP-4 effect (arrow symbol) (AQP4; [2]): (↓)?
AQP-1 effect (in words) (AQP1; given extracellularly): No significant effect
AQP-1 effect (arrow symbol) (AQP1; [3]): ═

Compound: CCCCNc1cc(C(=O)OC)cc(S(N)(=O)=O)c1Oc1ccccc1 [AQP-0001, bumetanide methyl ester]
AQP-4 effect: % block (AQP4; 1 μM extracellularly): −30%
AQP-4 effect: potency compared with bumetanide (in words) (AQP4; extracellularly): Improved potency over bumetanide
AQP-4 effect (arrow symbol) (AQP4; [2]): ↓↓

Continued, values first:

AQP-4 effect: % block (AQP4; at 1 μM extracellularly): −30%
AQP-4 effect: comparison with bumetanide (in words) (AQP4): Improved potency over bumetanide
Compound: CCCCNc1c(Oc2ccccc2)cc(S(N)(=O)=O)cc1C(=O)OC

AQP-4 effect (arrow symbol) (AQP4; arrow symbols, key not given): (↑)?
AQP-1 effect (arrow symbol) (AQP1; arrow symbols, key not given): ↑
Compound: CNS(=O)(=O)c1cc(C(=O)O)c(NCc2ccco2)cc1Cl

AQP-4 effect (in words) (AQP4; at 100 μM): Significant Agonist Effect at 100 μM
Compound: NS(=O)(=O)c1cc(C(=O)O)c(Cl)cc1NCc1ccco1

AQP-4 effect (arrow symbol) (AQP4; arrow symbols, key not given): ↑
AQP-4 effect (in words) (AQP4; at 100 μM): Significant Agonist Effect
AQP-1 effect (arrow symbol) (AQP1; arrow symbols, key not given): ═
Compound: COC(=O)c1cc(S(=O)(=O)NCc2ccccc2)c(Cl)cc1NCc1ccco1

AQP-4 effect (arrow symbol) (AQP4; arrow symbols, key not given): ↑↑
AQP-4 effect (in words) (AQP4; at 100 μM): Significant Agonist Effect
AQP-1 effect (arrow symbol) (AQP1; arrow symbols, key not given): ═
Compound: C=CCNS(=O)(=O)c1cc(C(=O)O)c(NCc2ccco2)cc1Cl

AQP-4 effect (in words) (AQP4; at 10 μM): No Significant effect at 10 μM
Compound: CCCCNc1cc(C(=O)N2CCN(C)CC2)cc(S(N)(=O)=O)c1Oc1ccccc1
